Patent EP2265631B1, “NOVEL ANTIMICROBIAL PEPTIDES AND THEIR APPLICATION” (Ustav Organicke Chemie a Biochemie Akademie Ved Ceske …, priority 2008, dated 2009)
Ends that are not written are not given here. Peptide text beside a SMILES is read from it.

Experiments:
Format in all cases: cell-based
rat red blood cells = experiment: Determination of hemolytic activity; settings: rat red blood cells (5%), 1 h at 37°C, peptides 1-200 µM
Method: The peptides in the concentration (1-200 µM) were incubated with rat red blood cells (5%) for 1 h at 37°C in a physiological solution at a final volume of 0.2 ml. The samples were then centrifuged for 5 min at 250 g, and the absorbance of the supernatant was determined at 540 nm. Supernatants of red blood cells suspended in physiological solution and in 0.2% TRITON X100 in physiological solution served as controls for zero hemolysis (blank) and 100% hemolysis, respectively. Table 3. Antimicrobial and hemolytic activity of melectin (I) and its synthetic analogs of formulas II/1 to II/18

Pseudomonnas aeruginosa = experiment: Determination of antimicrobial activity (MIC, bacterial growth in LB broth); settings: minimum inhibitory concentration (MIC) per method, 37°C, 20 h, read-out: Antimicrobial activity IC50 [µM] P.a.
Method: (§1) Antimicrobial activity was determined as a quantitative minimum inhibitory concentration (MIC) by observing bacterial growth in the presence of different concentrations of tested peptides. Mid-exponential phase bacteria were added to the solutions of the tested antimicrobial peptide at different concentrations (0.5 to 100 µM) in LB broth in multi-well plates. The plates were incubated at 37°C for 20 h while being continuously shaken in a Bioscreen C instrument (Finland). The absorbance was measured at 540 nm every 15 min and each peptide was tested at least 3 times in duplicate. 1.2.10^3 - 7.5.10^3 CFU of bacteria was routinely used in the experiments. Tetracycline in a concentration range of 0.1 - 50 µM was tested as a standard.

Escherichia coli = experiment: as above; settings: minimum inhibitory concentration (MIC) per method, 37°C, 20 h, read-out: Antimicrobial activity IC50 [µM] E. c.
Method: as §1

Staphylococcus aureus = experiment: as above; settings: minimum inhibitory concentration (MIC) per method, 37°C, 20 h, read-out: Antimicrobial activity IC50 [µM] S.a.
Method: as §1

Bacilus subtilis = experiment: as above; settings: minimum inhibitory concentration (MIC) per method, 37°C, 20 h, read-out: Antimicrobial activity IC50 [µM] B.s.
Method: as §1

Compound | Hemolytic activity (rat red blood cells) | IC50 (Pseudomonnas aeruginosa) [µM] | IC50 (Escherichia coli) [µM] | IC50 (Staphylococcus aureus) [µM] | IC50 (Bacilus subtilis) [µM]
CC[C@H](C)[C@H](NC(=O)[C@H](CO)NC(=O)[C@H](CC(C)C)NC(=O)[C@H](Cc1ccccc1)NC(=O)CN)C(=O)N[C@@H](CC(C)C)C(=O)N[C@@H](CCCCN)C(=O)N[C@@H](CCCCN)C(=O)N[C@H](C(=O)N[C@@H](CC(C)C)C(=O)N1CCC[C@@H]1C(=O)N[C@@H](CCCCN)C(=O)N[C@H](C(=O)N[C@@H](CCSC)C(=O)N[C@@H](C)C(=O)N[C@@H](Cc1c[nH]cn1)C(=O)N[C@@H](CCSC)C(=O)N[C@@H](CCCCN)C(N)=O)C(C)C)C(C)C [II/15, H-Gly-Phe-Leu-Ser-Ile-Leu-Lys-Lys-Val-Leu-Pro-Lys-Val-Met-Ala-His-Met-Lys-NH2] | »200 µM | 100 | 4.2 | > 100 | 1.7
CC[C@H](C)[C@H](NC(=O)[C@H](CO)NC(=O)[C@H](CC(C)C)NC(=O)[C@H](Cc1cccc2ccccc12)NC(=O)CN)C(=O)N[C@@H](CC(C)C)C(=O)N[C@@H](CCCCN)C(=O)N[C@@H](CCCCN)C(=O)N[C@H](C(=O)N[C@@H](CC(C)C)C(=O)N1CCC[C@H]1C(=O)N[C@@H](CCCCN)C(=O)N[C@H](C(=O)N[C@@H](CCSC)C(=O)N[C@@H](C)C(=O)N[C@@H](Cc1c[nH]cn1)C(=O)N[C@@H](CCSC)C(=O)N[C@@H](CCCCN)C(N)=O)C(C)C)C(C)C [II/16, H-Gly-1Nal-Leu-Ser-Ile-Leu-Lys-Lys- V al-Leu-Pro-Lys- V al-Met-Ala-His-Met-Lys-NH2] (HELM PEPTIDE1{G.[O=C([C@H](Cc1cccc2ccccc12)N[*:1])[*:2]].L.S.I.L.K.K.V.L.P.K.V.M.A.H.M.K.[am]}$$$$V2.0) | 25 µM | 17.3 | 0.4 | 2.5 | 0.4
CCCC[C@H](NC(=O)[C@H](Cc1c[nH]cn1)NC(=O)[C@H](C)NC(=O)[C@H](CCCC)NC(=O)[C@@H](NC(=O)[C@H](CCCCN)NC(=O)[C@@H]1CCCN1C(=O)[C@H](CC(C)C)NC(=O)[C@@H](NC(=O)[C@H](CCCCN)NC(=O)[C@H](CCCCN)NC(=O)[C@H](CC(C)C)NC(=O)[C@@H](NC(=O)[C@H](CO)NC(=O)[C@H](CC(C)C)NC(=O)[C@H](Cc1ccccc1)NC(=O)CN)[C@@H](C)CC)C(C)C)C(C)C)C(=O)N[C@@H](CCCCN)C(N)=O [II/18, H-Gly-Phe-Leu-Ser-Ile-Leu-Lys-Lys-Val-Leu-Pro-Lys-Val-Nle-Ala-His-Nle-Lys-NH2] (HELM PEPTIDE1{G.F.L.S.I.L.K.K.V.L.P.K.V.[Nle].A.H.[Nle].K.[am]}$$$$V2.0) | – | 17.3 | 0.75 | 2.5 | 0.2
CCCC[C@H](NC(=O)[C@H](Cc1cnc[nH]1)NC(=O)[C@H](C)NC(=O)[C@H](CCCC)NC(=O)[C@@H](NC(=O)[C@H](CCCCN)NC(=O)[C@@H]1CCCN1C(=O)[C@H](CC(C)C)NC(=O)[C@@H](NC(=O)[C@H](CCCCN)NC(=O)[C@H](CCCCN)NC(=O)[C@H](CC(C)C)NC(=O)[C@@H](NC(=O)[C@H](CO)NC(=O)[C@H](CC(C)C)NC(=O)[C@H](Cc1ccccc1)NC(=O)CN)[C@@H](C)CC)C(C)C)C(C)C)C(=O)N[C@@H](CCCCN)C(N)=O [II/18, H-Gly-Phe-Leu-Ser-Ile-Leu-Lys-Lys-Val-Leu-Pro-Lys-Val-Nle-Ala-His-Nle-Lys-NH2] (HELM PEPTIDE1{G.F.L.S.I.L.K.K.V.L.P.K.V.[Nle].A.H.[Nle].K.[am]}$$$$V2.0) | 50 µM | – | – | – | –
GFLSILKKVLGKVMAHMK-NH2 [II/3, H-Gly-Phe-Leu-Ser-lle-Leu-Lys-Lys-Val-Leu-Gly-Lys-Val-Met-Ala-His-Met-Lys-NH2] | 41.4 µM | 14.4 | 1.8 | 4.3 | 1.3
GFLSILKKVLKVMAHMK-NH2 [II/8, H-Gly-Phe-Leu-Ser-Ile-Leu-Lys-Lys-Val-Leu-... -Lys-Val-Met-Ala-His-Met-Lys-NH2] | 22.9 µM | 27.5 | 1.8 | 5 | 0.9
H-FLSILKKVLPKVMAHMK-NH2 [II/9, H-Phe-Leu-Ser-Ile-Leu-Lys-Lys-Val-Leu-Pro-Lys-Val-Met-Ala-His-Met-Lys-NH2] | >200 µM | 62.1 | 9.08 | 38.8 | 1.2
H-GFLSILKKVGPKVMAHMK-NH2 [II/14, H-Gly-Phe-Leu-Ser-Ile-Leu-Lys-Lys-Val-Gly-Pro-Lys-Val-Met-Ala-His-Met-Lys-NH2] | »200 µM | 80 | 22.5 | 80 | 1.4
H-GFLSILKKVL-NH2 [II/13, H-Gly-Phe-Leu-Ser-Ile-Leu-Lys-Lys-Val-Leu-NH2] | >100 µM | 58.7 | 9.1 | 10.9 | 2.9
